Laboratory results from patent publication US6340705B1, “Use of α-linolenic acid metabolites for treatment or prevention of cancer” (Monsanto Technology, LLC, priority 1999, dated 2002).
Marks after values point to notes of the source that are not given here.

Assays:
[1] = assay type: in vivo, rats; conditions: rat, in vivo
Source text: (§1) Mice were fed a US17 diet containing α-linolenic acid ethyl ester (ALA-EE), stearidonic acid ethyl ester (SDA-EE), eicosapentaenoic acid ethyl ester (EPA-EE), or docosahexaenoic acid ethyl ester (DHA-EE) in an amount equivalent to a human western diet containing 1, 3 or 10 g/day of the fatty acid (g/day human equivalent dose). In order to maintain a 17% fat (37 en %) content in the US17 diet, oleic acid (18:1 n-9), as an oleic acid cassette, was removed from the US17 diet in an amount equal to the amount of fatty acid ester that was added. Oleic acid was selected as the replacement fatty acid because literature reports indicate that oleic acid is neutral with respect to inflammation and cancer.
(§2) After one month on the respective US17-based diets, the mice were sacrificed and the fatty acid composition of each of their livers was analyzed by gas chromatography. The results of these analyses are pressured in FIG. 8.
The method used was as described in Example 6 except that rats were used in place of mice.

[2] = parameters: species or system Mice; conditions: mouse, in vivo
Source text: The method used was a non-radioactive, dose response, metabolic end-point study.
as §1, §2

[3] = Metabolism in mice, time course analysis using radiolabeled fatty acids (mouse liver); conditions: mice on US17 diet, intraperitoneal 10 μCi, at 24 hours
Protocol: The method used was a time course study using ^14C-labeled fatty acids.
Mice were fed the US17 diet for a period of one month in order to achieve steady-state fatty acid metabolism. After achieving steady-state fatty acid metabolism, the mice were administered an intraperitoneal injection containing 10 μCi of ^14C-ALA, ^14C-SDA, ^14C-EPA OR ^14C-DHA. Mice were sacrificed 3 hours, 8 hours or 24 hours post-injection, and the total amount of ^14C-EPA, ^14C-DPA n-3 and ^14C-DHA was measured by argentation thin layer chromatography followed by direct electronic autoradiography, as described in Example 3.

[4] = system: Min/+ mouse model of intestinal cancer; assay: Intestinal polyp formation in the Min/+ mouse model of intestinal cancer; assay type: in vivo; parameters: Avg. large intestine tumor size: unit not given here; conditions: Min/+ mice; for effectiveness in inhibiting polyp formation and development in the large intestine / effect on polyp number relative to the US17 control: 10 g/day human equivalent dose; for Total small intestine tumors/group / Avg. large intestine tumors/mouse / Avg. small intestine tumor size / Avg. small intestine tumors/mouse / Avg. large intestine tumor size / Avg. large intestine tumor load / Avg. small intestine tumor load / Total Avg. overall tumor load / Total Avg. overall tumor size / Total Avg. tumors/mouse: 10 g/day human equivalent dose (3% wt.) or sulindac 320 ppm; for Total small intestine tumors/group / Avg. large intestine tumors/mouse / Avg. small intestine tumor size / Avg. small intestine tumors/mouse / Avg. large intestine tumor size / Avg. large intestine tumor load / Avg. small intestine tumor load / Total large intestine tumors/group / Total Avg. overall tumor load / Total Avg. overall tumor size / Total Avg. tumors/mouse / Total large intestine tumors/group, figure in brackets (animals bearing tumors/animals in group): seven weeks; for Avg. large intestine tumors/mouse / Avg. small intestine tumor size / Avg. small intestine tumors/mouse / Avg. large intestine tumor size / Avg. large intestine tumor load / Avg. small intestine tumor load / Total Avg. overall tumor load / Total Avg. overall tumor size / Total Avg. tumors/mouse: mean ± SEM; for Avg. large intestine tumor size: only animals bearing colonic tumors; for Avg. large intestine tumor load / Avg. small intestine tumor load: tumor number × tumor size; for Total large intestine tumors/group / Total large intestine tumors/group, figure in brackets (animals bearing tumors/animals in group): fatty acid ethyl ester 10 g/day human equivalent dose (3% wt.) in US17 diet or sulindac 320 ppm; for Total Avg. overall tumor load / Total Avg. overall tumor size / Total Avg. tumors/mouse: large and small intestine; for effect on polyp number relative to the US17 control: differences not significant
Protocol: The efficacy of select n-3 and n-6 polyunsaturated fatty acids was evaluated in the Min/+ mouse model of intestinal cancer. The following fatty acid ethyl esters were tested for their effect on intestinal polyp formation: 1) ALA-EE; 2) SDA-EE; 2) EPA-EE; 4) DHA-EE; 5) GLA-EE ([…], 18:3 n-6); and 6) CLA-EE (conjugated linoleic acid; c9t11-18:2 (77%)+c9c11-18:2 (18%)+other isomers (5%)).
These fatty acid ethyl esters were added to the US17 diet to provide 10 g/day human equivalent dose (3% wt.). The NSAID, sulindac (320 ppm), served as the positive control. In order to maintain a 17% fat (37 en%) content in the US17 diet, oleic acid (18:1 n-9) was removed from the US17 diet in an amount equal to the amount of the fatty acid ethyl ester that was added. Mice were received at approximately five weeks of age and were fed the test diets upon receipt. After seven weeks on the respective test diet, the mice were sacrificed and the intestinal polyps were counted and measured.

HepG2 cells [5] = assay: Uptake of 14C-ALA, 14C-SDA and 14C-EPA by HepG2 cells; assay type: in vitro ADME; conditions: for radiolabeled fatty acid taken up by the cells: 20 μM complexed to fatty acid free BSA, within the first six hours of incubation; for uptake by HepG2 cells, comparison (FIG. 1): 20 μM, 6, 24 and 48 hours
Protocol: To a culture medium containing HepG2 cells was added 20 μM ^14C-ALA, ^14C-SDA or ^14C-EPA complexed to fatty acid free BSA. The amount of ^14C-ALA, ^14C-SDA or ^14-EPA EPA Taken up by the HepG2 cells was measured 6 hours, 24 hours and 48 hours after addition of the fatty acid. A scintillation counter was used to measure the total amount of radioactivity in the HepG2 cells and the amount remaining in the medium.

HepG2 cells [6] = assay: Metabolism of radiolabeled fatty acids to long chain n-3 PUFAs (EPA, DHA) in HepG2 cells; assay type: in vitro ADME; conditions: 20 μM
Protocol: HepG2 cells were allowed to take up ^14C-ALA or ^14C-SDA as described in Example 2. The total amount of ^14C-EPA, ^14C-DPA and ^14C-DHA present in the HepG2 cells was measured 6 hours, 24 hours and 48 hours after addition of the fatty acid by argentation thin layer chromatography (TLC). The amount of each fatty acid present as a band on the TLC plate was quantified by electronic autoradiography using an Instant Imager supplied by Packard (Meriden, Conn.).
HepG2 cells were allowed to take up ^14C-ALA, ^14C-SDA or ^14C-EPA as described in Example 2. The amount of ^14C-EPA and ^14C-DHA present in the HepG2 cells was measured 6 hours, 24 hours and 48 hours after addition of the fatty acids by argentation thin layer chromatography (TLC) as described in Example 3. The amount of ^14C-EPA and ^14C-DHA present as bands on the TLC plate were quantified by electronic autoradiography using an Instant Imager as described in Example 3.

| Compound | sum of long chain n-3 PUFAs (EPA+DPA n-3, and DHA) in liver tissue, rank order of dose dependent accumulation (FIG. 9) [1] | sum of long chain n-3 PUFAs (EPA+DPA n-3+DHA) in liver tissue, rank order of dose dependent increase (FIG. 8) [2] | order of metabolism to 14C-EPA + 14C-DPA n-3 + 14C-DHA in mouse liver (FIG. 6) [3] | effectiveness in inhibiting polyp formation and development in the large intestine [4] | Total small intestine tumors/group [4] | Avg. large intestine tumors/mouse [4] | Avg. small intestine tumor size [4] | Avg. small intestine tumors/mouse [4] | Avg. large intestine tumor size [4] | Avg. large intestine tumor load [4] | Avg. small intestine tumor load [4] | Total large intestine tumors/group [4] | Total Avg. overall tumor load [4] | Total Avg. overall tumor size [4] | Total Avg. tumors/mouse [4] | radiolabeled fatty acid taken up by the cells (HepG2 cells [5]) | uptake by HepG2 cells, comparison (FIG. 1) (HepG2 cells [5]) | amount of EPA that remained after incubation with EPA itself (HepG2 cells [6]) [%] | effect on polyp number relative to the US17 control [4] | Total large intestine tumors/group, figure in brackets (animals bearing tumors/animals in group) [4] |
| --- | --- | --- | --- | --- | --- | --- | --- | --- | --- | --- | --- | --- | --- | --- | --- | --- | --- | --- | --- | --- |
| CC/C=C\C/C=C\C/C=C\C/C=C\C/C=C\CCCC(=O)OCC [EPA-EE, eicosapentaenoic acid ethyl ester] | DHA-EE>EPA-EE>SDA-EE>ALA-EE | DHA-EE>EPA-EE>SDA-EE>ALA-EE | – | – | – | – | – | – | – | – | – | – | – | – | – | – | – | – | – | – |
| CC/C=C\C/C=C\C/C=C\C/C=C\C/C=C\C/C=C\CCC(=O)O [DHA, docosahexaenoic acid] | – | – | DHA=EPA>SDA>ALA | no efficacy | 280 | 1.8 ± 0.4^a | 1.16 ± 0.04^ab mm | 28.0 ± 5.6^bc | 3.01 ± 0.20^a | 5.06 ± 0.85^a mm | 33.15 ± 8.09^bc mm | 18 | 35.60 ± 7.10^bc mm | 1.20 ± 0.04^bc mm | 29.8 ± 5.9^bc | – | – | – | – | – |
| CC/C=C\C/C=C\C/C=C\C/C=C\C/C=C\CCCC(=O)O [EPA, eicosapentaenoic acid] | – | – | – | – | 176 | 0.9 ± 0.3^abcd | 1.05 ± 0.03^b mm | 17.6 ± 2.2^cd | 2.48 ± 0.39^ab | 2.25 ± 0.75^bcd mm | – | 9 | 20.28 ± 2.23^cd mm | 1.11 ± 0.04^cd mm | 18.5 ± 2.2^a | Approximately 95% | taken up equally | 63 | – | – |
| CC/C=C\C/C=C\C/C=C\C/C=C\C/C=C\C/C=C\CCC(=O)OCC [DHA-EE, docosahexaenoic acid ethyl ester] | DHA-EE>EPA-EE>SDA-EE>ALA-EE | DHA-EE>EPA-EE>SDA-EE>ALA-EE | – | – | – | – | – | – | – | – | – | – | – | – | – | – | – | – | – | – |
| CC/C=C\C/C=C\C/C=C\CCCCCCCC(=O)O [ALA, α-linolenic acid] | – | – | – | – | – | – | – | – | – | – | – | – | – | – | – | Approximately 95% | taken up equally | – | – | – |
| CC/C=C\C/C=C\C/C=C\C/C=C\CCCCC(=O)OCC [SDA-EE, stearidonic acid ethyl ester] | DHA-EE>EPA-EE>SDA-EE>ALA-EE | DHA-EE>EPA-EE>SDA-EE>ALA-EE | – | – | – | – | – | – | – | – | – | – | – | – | – | – | – | – | – | – |
| conjugated linoleic acid [CLA] | – | – | – | – | 409 | 1.1 ± 0.4^abcd | 1.24 ± 0.03^ab mm | 45.4 ± 8.2^a | 3.03 ± 0.52^a | 3.47 ± 1.29^ab mm | 57.84 ± 11.70^a mm | 10 | 61.30 ± 12.41^a mm | 1.28 ± 0.04^ab mm | 46.6 ± 8.3^a | – | – | – | appeared to increase polyp number | 5/9 |
| CC1=C(CC(=O)O)c2cc(F)ccc2/C1=C\c1ccc([S+](C)[O-])cc1 (stereo not drawn) [Sulindac, sulindac] | – | – | – | – | 29 | 0.2 ± 0.2^cd | 1.25 ± 0.29^ab mm | 3.2 ± 1.1^d | 2.00 ± 0.00^ab | 0.44 ± 0.29^cd mm | 3.64 ± 1.12^d mm | 2 | 3.64 ± 1.27^d mm | 1.04 ± 0.08^d mm | 3.4 ± 1.2^d | – | – | – | – | 2/9 |
| CC/C=C\C/C=C\C/C=C\CCCCCCCC(=O)OCC [ALA-EE, α-linolenic acid ethyl ester] | DHA-EE>EPA-EE>SDA-EE>ALA-EE | DHA-EE>EPA-EE>SDA-EE>ALA-EE | – | – | – | – | – | – | – | – | – | – | – | – | – | – | – | – | – | – |
| α-linolenic acid [ALA] | – | – | – | marginally efficacious | 364 | 0.8 ± 0.3^bcd | 1.23 ± 0.04^ab mm | 36.4 ± 6.3^ab | 2.75 ± 0.46^ab | 2.15 ± 0.83^bcd mm | 45.67 ± 8.66^ab mm | 8 | 45.97 ± 8.88^ab mm | 1.21 ± 0.03^bc mm | 37.2 ± 6.6^ab | – | – | – | – | 5/10 |
| CCCCC/C=C\C/C=C\C/C=C\CCCCC(=O)O [GLA, γ-linolenic acid] | – | – | – | – | 421 | 1.2 ± 0.4^abc | 1.30 ± 0.04^ab mm | 46.8 ± 7.1^a | 2.57 ± 0.30^ab | 3.25 ± 1.34^abc mm | 61.62 ± 10.36^a mm | 11 | 64.84 ± 11.05^a mm | 1.33 ± 0.04^a mm | 48.0 ± 7.4^a | – | – | – | appeared to increase polyp number | 6/9 |
